Experiment: Hemodialysis treatments with trisodium citrate infusion into the arterial line and Citrasate dialysate; measured ionized calcium
Type: in vivo, maintenance HD patients
Conditions: 15 min into the treatment, mean±SD
Description: For one treatment only, Citrasate with 2.5 mEq/L Ca was used. No post-dialyzer Ca infusion was performed. Total Ca, Ca^++ and total Ci were measured systemically, pre- and post-dialyzer at the following time points: before HD (systemically only), at several time points throughout the treatment, and at the end of HD. […] Total protein and albumin were measured before dialysis. The most recent alkaline phosphatase (AP) and total parathyroid hormone (PTH) (Scantibodies assay, Scantibodies Laboratory, Inc., Santee, Calif.) were recorded. […] All subjects used Optiflux F180NR dialyzers (Fresenius Medical Care North America, Waltham, Mass.).
Measured and predicted systemic Ca^++ were compared pre-HD and at 15 min into the treatment. For the latter, pre-HD predicted were adjusted to measured values. Pre- and post-dialyzer comparisons between measured and estimated Ca^++ were performed at 15 min into the treatment. Deviations between predicted and measured systemic Ca^++ over the entire treatment were compared for tertiles of AP and tPTH.
Results are presented below as mean±standard deviation (SD) unless otherwise noted. Differences between predicted and measured values were calculated as predicted minus measured and were tested for significant deviation from zero by means of two-tailed one-sample t test. Bland-Altman plots were generated and the underlying data analyzed for systematic bias by means of linear regression. Statistical significance was accepted for an alpha level of <0.05.

[1] = Citrasate dialysate, no post-dialyzer Ca infusion

For O=C([O-])CC(O)(CC(=O)[O-])C(=O)[O-].[Na+].[Na+].[Na+] [Trisodium citrate], the “Measured post-dialyzer Ca” value [1] was 0.7 ± 0.05 mmol/L, the “Measured systemic Ca++” value [1] was 1.01 ± 0.05 mmol/L and the “Measured pre-dialyzer Ca” value (after citrate infusion) was 0.33 ± 0.06 mmol/L.
